Among the data in patent publication US7094781B2, “Sulfamides and their use as endothelin receptor antagonists” (Actelion Pharmaceuticals Ltd., priority 2000, dated 2006) are IC50 values, retold here.

Test [1] deals with T1, human recombinant ETA receptor (Homo sapiens, UniProt P25101).
T1 construct: expressed in transfected cells; host or cells: CHO cells (microsomal membranes)
T1 sequence (P25101 21-427): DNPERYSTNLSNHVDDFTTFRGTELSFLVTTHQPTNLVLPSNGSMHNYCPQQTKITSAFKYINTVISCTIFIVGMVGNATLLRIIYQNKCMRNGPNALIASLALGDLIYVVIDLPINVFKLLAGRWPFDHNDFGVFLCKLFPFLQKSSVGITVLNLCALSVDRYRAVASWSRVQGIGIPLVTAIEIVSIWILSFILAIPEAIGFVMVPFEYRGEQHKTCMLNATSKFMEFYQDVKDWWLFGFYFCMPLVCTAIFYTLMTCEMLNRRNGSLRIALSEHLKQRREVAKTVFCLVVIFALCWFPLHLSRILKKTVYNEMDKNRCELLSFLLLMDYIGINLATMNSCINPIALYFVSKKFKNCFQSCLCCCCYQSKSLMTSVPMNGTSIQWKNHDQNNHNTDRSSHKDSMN
The experiment in a line: Inhibition of [125I]ET-1 binding to membranes from CHO cells carrying human ETA receptors.

The target of test [2] is T2, human recombinant ETB receptor (Homo sapiens, UniProt P24530).
T2 construct: expressed in transfected cells; host or cells: CHO cells (microsomal membranes)
T2 sequence (P24530 27-442): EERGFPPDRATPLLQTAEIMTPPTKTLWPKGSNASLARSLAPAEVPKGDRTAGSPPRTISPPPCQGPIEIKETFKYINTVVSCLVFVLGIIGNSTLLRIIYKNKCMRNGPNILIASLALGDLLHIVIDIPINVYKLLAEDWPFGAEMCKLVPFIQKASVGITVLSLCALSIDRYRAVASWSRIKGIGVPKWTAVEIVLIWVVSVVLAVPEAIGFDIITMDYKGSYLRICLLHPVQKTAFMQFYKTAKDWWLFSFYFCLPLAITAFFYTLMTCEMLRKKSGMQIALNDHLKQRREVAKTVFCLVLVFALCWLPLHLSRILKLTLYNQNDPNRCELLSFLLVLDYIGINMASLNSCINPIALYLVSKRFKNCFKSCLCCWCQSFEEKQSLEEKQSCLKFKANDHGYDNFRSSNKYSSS
The experiment in a line: Inhibition of [125I]ET-1 binding to membranes from CHO cells carrying human ETB receptors.

Bounds are passed on as bounds.

One may read the IC50 as the point on the concentration scale where inhibition reaches its midpoint. As for `COc1ccccc1Oc1c(NS(=O)(=O)NCc2ccccc2)nc(-c2ccncc2)nc1OCCOc1ncc(Br)cn1` [Example 73], in test [1], the half-maximal inhibitory concentration (IC50) stood at 1.9 nM.

`COc1ccccc1CNS(=O)(=O)Nc1nc(-c2ncccn2)nc(OCCOc2ncc(Br)cn2)c1Oc1ccccc1OC` [Example 174]: the figures for the half-inhibitory concentration (IC50) in test [2] and in test [1] were 93 nM and 3.7 nM, respectively.

With `COc1cnc(OCCOc2nc(-c3ncccn3)nc(NS(=O)(=O)NCc3ccc(F)cc3)c2Oc2ccccc2OC)nc1` [Example 143], the IC50 in test [2] was determined as 35 nM; in test [1] it was 3.1 nM.

On to `COc1ccccc1Oc1c(NS(=O)(=O)Nc2ccccn2)nc(-c2ccncc2)nc1OC` [Example 9, pyridine-2-sulfamic acid-[6-methoxy-5-(o-methoxyphenoxy)-2-(4-pyridyl)-4-pyrimidinyl]-amide], for which the IC50 in test [2] is over 10000 nM; in test [1], 3630 nM.

As to `COc1cccc(CNS(=O)(=O)Nc2nc(-c3ncccn3)nc(OCCOc3ncccn3)c2Oc2ccccc2OC)c1` [Example 171], the IC50 turned out to be 61 nM in test [2] and 11 nM in test [1].

As for `C#CCOc1nc(-c2ccnc(-c3nnn[nH]3)c2)nc(NS(=O)(=O)NCc2ccccc2)c1Oc1ccccc1OC` [Example 210, Benzylsulfamic acid [5-(2-methoxy-phenoxy)-6-prop-2-ynyloxy-2-[2-(1H-tetrazol-5-yl)-pyridin-4-yl]-pyrimidin-4-yl]-amide], the results for the IC50 in test [2] and in test [1] were 936 nM and 23 nM, respectively.

For `CN(Cc1ccccc1)S(=O)(=O)Nc1ncnc(OCCOc2ncc(Br)cn2)c1-c1ccc(Cl)cc1` [Example 193], the IC50 in test [2] was over 1000 nM; in test [1], 3.6 nM.

Consider `COc1ccccc1Oc1c(NS(=O)(=O)NC2CC2)nc(-c2ncccn2)nc1OCCOc1ncc(Br)cn1` [Example 199], for which the IC50 in test [2] amounted to 205 nM; in test [1], 12 nM.

In the case of `COc1cccc(CNS(=O)(=O)Nc2nc(-c3ncccn3)nc(OCCOc3ncc(Br)cn3)c2Oc2ccccc2OC)c1` [Example 170], the IC50 in test [2] came to 42 nM; in test [1] it was 1.7 nM.

Regarding `COc1cnc(OCCOc2nc(C3CC3)nc(NS(=O)(=O)NCc3ccccc3)c2Oc2ccccc2OC)nc1` [Example 89], the values for the IC50 in test [2] and in test [1] were 621 nM and 19 nM, respectively.

For the compound `COc1cccc(CNS(=O)(=O)Nc2nc(-c3ncccn3)nc(OCCOC(=O)Nc3ccccc3)c2Oc2ccccc2OC)c1` [Example 172], the results for the IC50 in test [2] and in test [1] were 16 nM and 3 nM, respectively.

With `COc1ccccc1Oc1c(NS(=O)(=O)NCc2ccccc2)ncnc1OCCOc1ncc(Br)cn1` [Example 96], the IC50 in test [1] is 6.3 nM.

In the case of `CSc1cnc(OCCOc2ncnc(NS(=O)(=O)NCC3CC3)c2-c2ccc(Br)cc2)nc1` [Example 108], the IC50 turned out to be 56 nM in test [2] and 0.28 nM in test [1].

As for `COc1ccccc1Oc1c(NS(=O)(=O)Nc2ccc(C(C)C)cc2)nc(-c2ccncc2)nc1OCCOc1ncccn1` [Example 4, 4-i-propyl-phenyl sulfamic acid-[6-[2-(pyrimidin-2-yloxy)-ethoxy]-5-(o-methoxyphenoxy)-2-(4-pyridyl)-pyrimidin-4-yl]-amide], the IC50 in test [2] was 680 nM; in test [1] it was 96 nM.

With `CCNS(=O)(=O)Nc1ncnc(OCCOc2ncc(SC)cn2)c1-c1ccc(Cl)cc1` [Example 116], the half-inhibitory concentration (IC50) in test [2] turned out to be 567 nM; in test [1], 1.3 nM.

Take `COc1ccc(Cl)c(Oc2c(NS(=O)(=O)NCc3ccccc3)ncnc2OCCO)c1` [Example 211, Benzylsulfamic acid [5-(2-chloro-5-methoxy-phenoxy)-6-(2-hydroxy-ethoxy)-pyrimidin-4-yl]-amide]: the concentration for half-maximal inhibition (IC50) in test [2] is 722 nM; in test [1] it was 290 nM.

Turning to `COc1cnc(OCCOc2nc(-c3ccncc3)nc(NS(=O)(=O)NCc3ccccc3)c2-c2ccc(Cl)cc2)nc1` [Example 111], the IC50 in test [2] turned out to be 3750 nM; in test [1], 12.3 nM.

As to `C=CCOc1nc(-c2ccnc(-c3nnn[nH]3)c2)nc(NS(=O)(=O)NCc2ccccc2)c1Oc1ccccc1OC` [Example 209, Benzylsulfamic acid [6-allyloxy-5-(2-methoxy-phenoxy)-2-[2-(1H-tetrazol-5-yl)-pyridin-4-yl]-pyrimidin-4-yl]-amide], the IC50 is over 1000 nM in test [2] and 733 nM in test [1].

Take `O=S(=O)(NCC1CC1)Nc1ncnc(OCCOc2ncc(Br)cn2)c1-c1ccc(Cl)cc1` [Example 112]: the IC50 in test [2] came out at 257 nM; in test [1], 0.52 nM.

On to `CCNS(=O)(=O)Nc1ncnc(OCCOc2ncc(Br)cn2)c1-c1ccc(Cl)cc1` [Example 115], for which the figures for the IC50 in test [2] and in test [1] were over 1000 nM and 2.2 nM, respectively.

`Cc1ccc(-c2c(NS(=O)(=O)NCc3ccc4c(c3)OCO4)ncnc2OCCOc2ncc(Br)cn2)cc1` [Example 145]: the figures for the concentration for half-maximal inhibition (IC50) in test [2] and in test [1] were over 1000 nM and 1.64 nM, respectively.

In the case of `COc1ccccc1Oc1c(NS(=O)(=O)NCc2ccccc2)nc(C2CC2)nc1OCCOc1ncc(Br)cn1` [Example 88], the IC50 in test [1] stood at 16 nM.

As for `CCNS(=O)(=O)Nc1ncnc(OCCOc2ncc(Br)cn2)c1-c1ccc(Br)cc1` [Example 104], the IC50 in test [1] came to 0.88 nM.

Turning to `COc1ccccc1Oc1c(NS(=O)(=O)Nc2ccc(C(C)C)cc2)nc(-c2ccncc2)nc1OCCOc1ccc(C(F)(F)F)cn1` [Example 6, 4-i-propyl-phenyl sulfamic acid-[6-[2-(5-trifluoromethyl-pyridin-2-yloxy)-ethoxy]-5-(o-methoxy-phenoxy)-2-(4-pyridyl)-pyrimidin-4-yl]-amide], the IC50 is 7240 nM in test [2] and 286 nM in test [1].

`COc1ccccc1CNS(=O)(=O)Nc1nc(-c2ncccn2)nc(OCCOc2ncccn2)c1Oc1ccccc1OC` [Example 175]: the IC50 in test [2] turned out to be 62 nM; in test [1], 22 nM.

Take `COc1ccc(Cl)c(Oc2c(NS(=O)(=O)NCc3ccccc3)ncnc2OCCOc2ncc(SC)cn2)c1` [Example 213, Benzylsulfamic acid [6-[2-(5-methylsulfanyl-pyrimidin-2-yloxy)-ethoxy]-5-(2-chloro-5-methoxy-phenoxy)-pyrimidin-4-yl]-amide]: the IC50 in test [2] was 347 nM; in test [1] it was 1.32 nM.

As to `COc1ccc(CNS(=O)(=O)Nc2nc(-c3ncccn3)nc(OCCOC(=O)Nc3ccccc3)c2Oc2ccccc2OC)cc1OC` [Example 168], the IC50 came out at 1.6 nM in test [2] and 2.7 nM in test [1].

On to `COc1ccccc1Oc1c(NS(=O)(=O)NC2CC2)nc(-c2ccncc2)nc1OCCOc1ncc(Br)cn1` [Example 202], for which the figures for the IC50 in test [2] and in test [1] were 351 nM and 9.6 nM, respectively.

Regarding `COc1ccccc1Oc1c(NS(=O)(=O)NCc2ccccc2)nc(C2CC2)nc1OCCOC(=O)Nc1ccccn1` [Example 91], the IC50 in test [2] came out at 79 nM; in test [1], 2.5 nM.

Regarding `COc1cnc(OCCOc2nc(-c3ncccn3)nc(NS(=O)(=O)NCc3ccc(Cl)cc3)c2Oc2ccccc2OC)nc1` [Example 55], the IC50 in test [2] came to 80 nM; in test [1] it was 5.2 nM.

Consider `COc1ccccc1Oc1c(NS(=O)(=O)NCc2ccco2)nc(-c2ncccn2)nc1OCCOc1ncc(Br)cn1` [Example 60], for which the IC50 in test [2] is 232 nM; in test [1] it was 3.4 nM.

In the case of `O=S(=O)(NCc1ccccc1)Nc1nc(-c2ccncc2)nc(OCCOc2ncc(Br)cn2)c1-c1ccc(Cl)cc1` [Example 109], the IC50 was over 1000 nM in test [2] and 1.94 nM in test [1].

`COc1ccc(CNS(=O)(=O)Nc2nc(-c3ncccn3)nc(OCCOC(=O)Nc3ccccn3)c2Oc2ccccc2OC)cc1` [Example 50]: the half-inhibitory concentration (IC50) in test [2] was determined as 7.5 nM; in test [1] it was 0.87 nM.

Turning to `O=S(=O)(Nc1ncnc(OCCOc2ncc(Br)cn2)c1-c1ccc(Br)cc1)NC1CC1` [Example 196], in test [1], the IC50 worked out at 4.4 nM.

Turning to `CCc1ccc(-c2c(NS(=O)(=O)NCc3ccccc3)ncnc2OCCOc2ncc(Br)cn2)cc1` [Example 29], the IC50 in test [1] came to 13.5 nM.

In the case of `COc1ccccc1Oc1c(NS(=O)(=O)NCc2ccccc2)nc(N2CCOCC2)nc1OCCOc1ncc(Br)cn1` [Example 206, Benzylsulfamic acid [6-[2-(5-bromo-pyrimidin-2-yloxy)-ethoxy]-5-(2-methoxy-phenoxy)-2-morpholin-4-yl-pyrimidin-4-yl]-amide], the IC50 in test [1] is 1.03 nM.

With `COc1ccc(Cl)c(Oc2c(NS(=O)(=O)NCc3ccccc3)ncnc2OCCOc2ncc(Br)cn2)c1` [Example 212, Benzylsulfamic acid [6-[2-(5-bromo-pyrimidin-2-yloxy)-ethoxy]-5-(2-chloro-5-methoxy-phenoxy)-pyrimidin-4-yl]-amide], in test [1], the IC50 is 3.1 nM.

For `CCNS(=O)(=O)Nc1nc(-c2ncccn2)nc(OCCOc2ncc(Br)cn2)c1Oc1ccccc1OC` [Example 184], in test [1], the IC50 came out at 29.5 nM.

For `COc1ccccc1Oc1c(NS(=O)(=O)N(C)Cc2ccccc2)nc(-c2ncccn2)nc1OCCOc1ncc(Br)cn1` [Example 187], in test [1], the IC50 came to 9.8 nM.

As to `COc1ccccc1Oc1c(NS(=O)(=O)NCc2ccccc2)nc(-c2cnccn2)nc1OCCOc1ncc(Br)cn1` [Example 71], the IC50 in test [1] stood at 23.6 nM.
